Test system: protein titer of dupilumab production cell culture
Test: LC-MS analysis of HEPES related impurities and titer correlation evaluation across cell culture production runs
Format: cell-based
Conditions: for Pearson Correlation Coefficient, 5 HEPES salt lots / Pearson Correlation Coefficient, 7 CDM1B lots (Geel) / Pearson Correlation Coefficient, 20 CDM1B lots (Rens): correlation of impurity abundance with final titer; for Pearson Correlation Coefficient, 7 CDM1B lots (Geel): 7 CDM1B media lots; for Pearson Correlation Coefficient, 20 CDM1B lots (Rens): 20 CDM1B media lots; for correlation of impurity abundance with titer: dupilumab production runs, Site 1 (20 runs) and Site 2 (7 runs)
Method: ANOVA analysis of the lot genealogy of 53 different components of a chemically defined media was performed between lots utilized in “high titer” performing cell culture runs and “low titer” performing cell culture runs. HEPES acid and salt were identified as “high risk” components, showing the strongest correlation with final titer (the correlation was stronger than the correlation between the titer and media as whole). HEPES also was identified as a “high risk component” in an independent risk-based analysis that considered the weight fractions of components in the media formulation, components' COA purity and their manufacturing methods.
Following identification of HEPES as a “high risk” component with strong correlation to final titer, an analysis of the chemical composition of HEPES buffer lots was performed, including LC-MS and titer correlations evaluations.
Large scale production runs were performed at multiple sites to produce dupilumab. […] Based on the findings, and in accordance with the inventions, improved protein titer may be obtained by using media having reduced HEPES related impurities, in accordance with the inventions.
FIG. 1 illustrates the relation between relative amounts of HEPES+[O2]−[H2] and protein titer. […] Summary of fit data is shown below each graph of FIGS. 2A and 2B.
FIG. 3 illustrates the relation between relative amounts of HEPES−[CH4] and protein titer. […] Summary of fit data is shown below each graph of FIGS. 4A and 4B.

Row | Compound | Pearson Correlation Coefficient, 5 HEPES salt lots | Pearson Correlation Coefficient, 7 CDM1B lots (Geel) | Pearson Correlation Coefficient, 20 CDM1B lots (Rens) | correlation of impurity abundance with titer
1 | O=S(=O)(O)CC(O)O [2,2-Dihydroxyethane-sulfonic acid] | −0.85 |  |  | 
2 | CC(=O)NCS(=O)(=O)O [Acetamidomethane-sulfonic acid] | −0.81 | −0.34 | −0.78 | 
3 | O=CN(CCO)CCN(C=O)CCS(=O)(=O)O [HEPES+[O2]−[H2]] | −0.82 | −0.68 | −0.77 | negative correlation with titer
4 | O=CN1CCN(CCS(=O)(=O)O)CC1 [HEPES−[CH4]] | −0.85 | −0.83 | −0.68 | negative correlation with titer
5 | C=CS(=O)(=O)O [Vinylsulfonic acid] | −0.60 | 0.41 | 0.16 | 
